# Results: patent US10966949B2, “Dietary supplementation to achieve oxy-redox homeostasis and epigenetic stability” (PARTHENOGEN SAGL, priority 2015, dated 2021)
# Legend:
# Agouti gene Avy = test: Agouti-yellow coat colour of offspring of supplemented VY dams (DNA methylation marking); type: in vivo, mouse; conditions: dams' diet fortified during gestation, human-equivalent dose, n=10; standard diet 66%
# From the text: Mice embryos carrying the transgenic Agouti gene Avy will develop during gestation an Agouti-yellow color hair instead of the normal brown color proportionally to the lack of cytosine methylation at the relevant gene promoter. Mothers with a good DNA methylation function during early embryogenesis will generate offspring exerting less of the yellow color, thus the proportion of yellow color in the offspring can be used as a measure of efficiency of DNA methylation marking. Newborn mice are classified as Y0 to Y5 according to the amount of yellow phenotype, from Y0 for those without yellow hair up to Y5 in those fully colored in yellow. Dams of the inbred agouti mouse strain VY underwent diversified feeding during their gestation: their standard diet (n=10), or; their standard diet fortified with folic acid in amounts equivalent to a human dose of 400 μg daily (n=10), or; their standard diet fortified with the substances in amounts equivalent to a human dose of 1 tablet per day of the formulation of EXAMPLE 1 (n=10). The offspring was classified Y0 to Y5 according to the amount of yellow colour. In the standard diet group the rate of offspring abundant Agouti yellow color (Y3 to Y5) was 66%, which decreased to 45% in the offspring from folic acid supplementation and to 31% in the offspring supplemented by the composition according to the invention.
# [1] = test system: plasma total antioxidant capacity (TAC); test: Plasma total antioxidant capacity (TAC) in healthy young males, cross-over; type: in vivo, human
# Method: Ten young male subjects aged 18-25, following a healthy diet and virtually free from diseases assumed the composition formulated according to EXAMPLE 1, 1 tablet per day, for 1 week or 1000 mg daily of vitamin C by the oral route for 1 week according to a cross-over design with a 1 month wash-out interval between the treatments. The plasma total antioxidant capacity (TAC) was measured by means of a colorimetric assay kit before and after each of the treatment periods in all subjects. The average TAC values expressed as μmol trolox equivalents increased from 572±33 to 646±20 (increase=13%) following one week supplementation with the powerful direct antioxidant vitamin C whereas it remained stable (from 570±31 to 578±26, increase=1%) following one week supplementation with the composition according to the invention.
# [2] = test system: plasma total antioxidant capacity (TAC); test: Plasma total antioxidant capacity (TAC) in regular smokers, cross-over; type: in vivo, human; conditions: ten male smokers
# Method: Ten male subjects regularly smoking 15 cigarettes per day or more assumed the composition formulated according to EXAMPLE 1, 1 tablet per day during 1 week or 1000 mg daily of vitamin C by the oral route for 1 week according to a cross-over design with a 1 month wash-out interval between the treatments. The plasma total antioxidant capacity (TAC) was measured by means of a colorimetric assay kit before and after each of the treatment periods in all subjects. The average TAC values expressed as μmol trolox equivalents increased from 472±36 to 522±32 (increase=11%) following one week supplementation with the powerful direct antioxidant vitamin C and from 468±31 to 565±36 (increase=21%) following one week supplementation with the composition according to the invention. Thus, the TAC increase provided by the aforementioned composition was of the same magnitude, if not higher, than that induced by full doses of a potent direct antioxidant.
# [3] = test system: patients with type 2 diabetes mellitus; test: Adjuvant treatment to metformin in newly diagnosed type 2 diabetes mellitus; type: in vivo, human
# From the text: Thirty male patients newly diagnosed as affected by type 2 diabetes mellitus and starting a treatment with metformin, 1-2 gr daily, where randomly assigned to a 3-month adjuvant treatment with the composition formulated according to EXAMPLE 1, 1 tablet per day, or no treatment.
# [4] = all patients on metformin 1-2 gr daily, 3 months
compound,measurement,setting,value
Nc1nc2ncc(CNc3ccc(C(=O)N[C@@H](CCC(=O)O)C(=O)O)cc3)nc2c(=O)[nH]1 [folic acid],rate of offspring with abundant Agouti yellow color (Y3 to Y5),Agouti gene Avy,45%
O=C1O[C@H]([C@@H](O)CO)C(O)=C1O [vitamin C],average plasma TAC after treatment,"[1]; ten healthy young males aged 18-25, after one week supplementation",646±20 μmol trolox equivalents
same,average plasma TAC before treatment,"[1]; ten healthy young males aged 18-25, before one week supplementation",572±33 μmol trolox equivalents
same,TAC increase,"[1]; ten healthy young males, one week supplementation",13%
same,average plasma TAC before treatment,"[2]; 15 cigarettes per day or more, before one week supplementation",472±36 μmol trolox equivalents
same,average plasma TAC after treatment,[2]; after one week supplementation,522±32 μmol trolox equivalents
same,TAC increase,[2]; one week supplementation,11%
CN(C)C(=N)N=C(N)N [metformin],plasma homocysteine at the end of treatment,[3]; [4],14.4 ± 2.1 µmol/L
same,serum HbA1C percentage at end,[3]; [4],9.2%
same,serum HbA1C percentage at baseline,"[3]; all patients on metformin 1-2 gr daily, baseline",10.4%
same,plasma homocysteine at baseline,"[3]; male type 2 diabetes patients starting metformin 1-2 gr daily, baseline",12.04 ± 1.6 µmol/L
